Consider 10 compounds from ChEMBL document CHEMBL1201862, “PubChem BioAssay data set” (2004).

The structures appear in SMILES notation.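 Protocol summary: plate cells (96-well), add compound at 5 concentrations, incubate 48 h, interpolate endpoints linearly. At the GI50, growth is halved.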 Active and inactive are the calls of the source. Rule as the data show it: active = GI50 up to about 1.1 µM and inactive = higher. Starred links: 1 amine or outer side, 2 acyl side, 3 side chain; linkers in the order of their positions; H or OH if unused. Non-standard residues stand in square brackets, D forms with d. Residues, ends and D or L forms follow the SMILES beside them. X41 = CSCCCC(N[*:1])C(=O)[*:2]

Among the test systems are A498; OVCAR-5; MDA-MB-435; COLO 205; M14; SW-620; CAKI-1; UACC-62; SF-268; K562; RXF 393; ACHN; PC-3; LOX IMVI; NCI-H522; A549; SNB-75; SK-OV-3; HOP-62; HT-29.
Assay in all cases: NCI anticancer screen, dose series, 48 h

Take `Nc1ccc2nc(-c3ccccn3)c(-c3ccccn3)nc2c1`: the GI50 in the experiment with A498, with OVCAR-5, in the experiment on MDA-MB-435, in the experiment on COLO 205, with M14 and in the experiment with SW-620 was > 100 µM (inactive) each time. Besides, the GI50 in the experiment on CAKI-1, in the experiment on UACC-62, in the experiment on SF-268, in the experiment with K562, in the experiment on RXF 393 and in the experiment with ACHN was > 100 µM (inactive) in each case. For the same compound, the GI50 in the experiment with PC-3, in the experiment with LOX IMVI, in the experiment on NCI-H522, in the experiment with A549 and in the experiment with SNB-75 was > 100 µM (inactive) in each case.

Consider `S=C(NCc1ccccc1)N/N=C/c1ccccn1`, for which the GI50 with A498 is 3.87 µM (inactive); in the experiment on OVCAR-5 it was > 21.8 µM (inactive); in the experiment on MDA-MB-435 it was 5.69 µM (inactive); with COLO 205 it was 0.104 µM (active); in the experiment with M14, 0.5 µM (active); in the experiment on SW-620 it was 1.16 µM (inactive). The GI50 in the experiment on SK-OV-3 was 3.94 µM (inactive); in the experiment with CAKI-1, 0.335 µM (active); with UACC-62, 3.27 µM (inactive); in the experiment with SF-268, 1.42 µM (inactive); in the experiment with K562, 0.0815 µM (active); with HOP-62 it was 3.7 µM (inactive). The GI50 was 1.27 µM (inactive) in the experiment with ACHN; 0.762 µM (active) in the experiment on PC-3; 1.53 µM (inactive) with LOX IMVI; 0.982 µM (active) in the experiment with NCI-H522; 4.29 µM (inactive) in the experiment on A549; 0.743 µM (active) in the experiment on HT-29. For the same compound, the GI50 with SNB-75 was 3.91 µM (inactive).

`COc1cc(Nc2ccc3c(c2)CCC3)nc(OC)n1`: the GI50 is 24.3 µM (inactive) with A498; 78 µM (inactive) in the experiment with OVCAR-5; > 100 µM (inactive) in the experiment with MDA-MB-435; 37.3 µM (inactive) in the experiment with COLO 205; 43.3 µM (inactive) with M14; > 100 µM (inactive) in the experiment on SW-620. Besides, the GI50 in the experiment with SK-OV-3 was 50 µM (inactive); in the experiment with CAKI-1 it was 37.9 µM (inactive); with UACC-62 it was 51.3 µM (inactive); in the experiment with SF-268, 23.9 µM (inactive); with HOP-62 it was 54.6 µM (inactive); with ACHN, 28.2 µM (inactive). Also, the GI50 in the experiment on PC-3 was 27.1 µM (inactive); in the experiment on LOX IMVI, 45.7 µM (inactive); in the experiment on NCI-H522, 21.4 µM (inactive); with A549 it was 26.5 µM (inactive); with HT-29, 19.9 µM (inactive); in the experiment on SNB-75 it was 18.9 µM (inactive).

In the case of `Cc1ccc2[nH]c(=O)c(-c3cnc(O)nn3)c(O)c2c1`, the GI50 in the experiment with A498 is > 100 µM (inactive); with OVCAR-5, > 100 µM (inactive); in the experiment with MDA-MB-435, 60.3 µM (inactive); with COLO 205, > 100 µM (inactive); in the experiment on M14, > 100 µM (inactive); in the experiment on SW-620 it was > 100 µM (inactive). Also, the GI50 with SK-OV-3 is > 100 µM (inactive); with CAKI-1 it was 55.3 µM (inactive); in the experiment with UACC-62 it was 26.4 µM (inactive); in the experiment on SF-268 it was > 100 µM (inactive); with K562, 1.8 µM (inactive); in the experiment with HOP-62 it was > 100 µM (inactive). Also, the GI50 in the experiment on RXF 393 was 17.2 µM (inactive); in the experiment on ACHN it was 19.7 µM (inactive); with PC-3, 15.6 µM (inactive); with LOX IMVI, > 100 µM (inactive); in the experiment on A549, 32 µM (inactive); with HT-29, > 100 µM (inactive). Further, the GI50 with SNB-75 was > 100 µM (inactive).

Turning to `C[C@]12CC[C@H]3[C@@H](CC=C4C[C@@H](N5CCCC5)CC[C@@]43C)[C@@H]1C/C(=C\c1ccc([N+](=O)[O-])cc1)[C@@H]2O`, the GI50 was 15.3 µM (inactive) with A498; 16.9 µM (inactive) in the experiment on MDA-MB-435; 16.6 µM (inactive) in the experiment on COLO 205; 16.6 µM (inactive) with M14; 17.9 µM (inactive) with SW-620; 15.9 µM (inactive) in the experiment on SK-OV-3. For the same compound, the GI50 is 13.3 µM (inactive) in the experiment with CAKI-1; 15.8 µM (inactive) with UACC-62; 17.5 µM (inactive) in the experiment with SF-268; 17.9 µM (inactive) with HOP-62; 19.9 µM (inactive) in the experiment on RXF 393; 15.9 µM (inactive) in the experiment on ACHN. The GI50 was 24.3 µM (inactive) in the experiment on PC-3; 16.4 µM (inactive) in the experiment with LOX IMVI; 17.1 µM (inactive) in the experiment with NCI-H522; 17.1 µM (inactive) in the experiment on A549; 13.2 µM (inactive) in the experiment with HT-29.

For the compound `CSCCCC(NC(=O)CNC(=O)C1CCCN1C(=O)C(Cc1ccc(O)cc1)NC(=O)C(Cc1ccccc1)NC(=O)C(CCCNC(=N)N)NC(=O)C(CC(=O)O)NC(=O)C1CCCN1C(=O)C(CC(=O)O)NC(=O)C1CCCN1C(=O)C1CCCN1C(=O)CN)C(N)=O` (stereo not drawn) (H-GPPDPDRFYPG[X41]-NH2; configuration not given here), the GI50 with A498, in the experiment with OVCAR-5, in the experiment with MDA-MB-435, in the experiment with COLO 205, with M14 and with SW-620 was > 50 µM (inactive) throughout. The GI50 in the experiment on SK-OV-3, with CAKI-1, in the experiment on UACC-62, in the experiment with SF-268, in the experiment on K562 and in the experiment on HOP-62 was > 50 µM (inactive) in each case. The GI50 in the experiment on ACHN, in the experiment on PC-3, in the experiment on LOX IMVI, in the experiment with NCI-H522, in the experiment on A549 and in the experiment with HT-29 was > 50 µM (inactive) each time.

`Cc1oc2nc1C(=O)NCc1nc(cs1)C(=O)N[C@H](C(C)C)c1nc(cs1)C(=O)N[C@H]2C`: the GI50 was > 100 µM (inactive) in the experiment on A498; > 100 µM (inactive) in the experiment on OVCAR-5; > 100 µM (inactive) in the experiment on MDA-MB-435; 75.7 µM (inactive) in the experiment with COLO 205; > 100 µM (inactive) with M14; > 100 µM (inactive) with SW-620. For the same compound, the GI50 in the experiment on SK-OV-3 is > 100 µM (inactive); in the experiment on CAKI-1, 44.9 µM (inactive); with UACC-62, 81.5 µM (inactive); in the experiment with SF-268, 85.5 µM (inactive); in the experiment with K562 it was 54.8 µM (inactive); in the experiment on HOP-62 it was 85.1 µM (inactive). In addition, the GI50 with RXF 393 is 8.34 µM (inactive); in the experiment on ACHN it was > 100 µM (inactive); in the experiment with PC-3, 40.3 µM (inactive); in the experiment on NCI-H522, 26.7 µM (inactive); with A549, 47.2 µM (inactive); in the experiment on HT-29, 65 µM (inactive). For the same compound, the GI50 in the experiment with SNB-75 was 95.7 µM (inactive).

For the compound `COC1C(=O)N(SC)C1c1ccccc1Cl` (stereo not drawn), the GI50 in the experiment with A498 is > 100 µM (inactive); in the experiment on OVCAR-5, 17.8 µM (inactive); in the experiment on MDA-MB-435, 21.3 µM (inactive); in the experiment with COLO 205, 51.8 µM (inactive); in the experiment with M14, 28.1 µM (inactive); in the experiment on SW-620, 21.4 µM (inactive). In addition, the GI50 was > 100 µM (inactive) in the experiment on SK-OV-3; 80.5 µM (inactive) with CAKI-1; 54.8 µM (inactive) in the experiment with UACC-62; > 100 µM (inactive) in the experiment on SF-268; 25.9 µM (inactive) in the experiment with K562; > 100 µM (inactive) with HOP-62. The GI50 with RXF 393 is > 100 µM (inactive); in the experiment with ACHN, 18.8 µM (inactive); in the experiment on PC-3, 86.7 µM (inactive); in the experiment on LOX IMVI it was 42.2 µM (inactive); with NCI-H522, 16.6 µM (inactive); in the experiment on A549 it was > 100 µM (inactive). For the same compound, the GI50 in the experiment with HT-29 was 20.3 µM (inactive).

For `Cc1sc2nc(-c3ccc(Cl)c([N+](=O)[O-])c3)c(/C=N/NC(=N)N)n2c1C`, the GI50 was 1.66 µM (inactive) with A498; 1.58 µM (inactive) in the experiment on OVCAR-5; 1.51 µM (inactive) in the experiment with MDA-MB-435; 0.282 µM (active) in the experiment with COLO 205; 1.53 µM (inactive) in the experiment on M14; 0.247 µM (active) with SW-620. In addition, the GI50 is 1.75 µM (inactive) with SK-OV-3; 1.62 µM (inactive) with CAKI-1; 1.79 µM (inactive) with UACC-62; 1.85 µM (inactive) in the experiment on SF-268; 2.39 µM (inactive) in the experiment on K562; 0.471 µM (active) with HOP-62. In addition, the GI50 is 1.52 µM (inactive) with RXF 393; 1.46 µM (inactive) in the experiment with ACHN; 1.52 µM (inactive) in the experiment on PC-3; 0.585 µM (active) in the experiment on LOX IMVI; 1.71 µM (inactive) with NCI-H522; 1.62 µM (inactive) in the experiment with A549. For the same compound, the GI50 in the experiment with HT-29 is 1.35 µM (inactive).

For `CCCCCC(C)C[C@H]1CO[C@H](c2ccc[nH]2)N[C@H]1C(=O)OC` (stereo partly drawn), the GI50 in the experiment with A498, with OVCAR-5, with MDA-MB-435, in the experiment on COLO 205, in the experiment with M14 and with SW-620 was > 100 µM (inactive) in each case. For the same compound, the GI50 with SK-OV-3, in the experiment with CAKI-1, in the experiment on UACC-62, in the experiment on SF-268, with HOP-62 and in the experiment on RXF 393 was > 100 µM (inactive) each time. Also, the GI50 in the experiment on ACHN, with PC-3, in the experiment on LOX IMVI, in the experiment with NCI-H522, in the experiment with A549 and in the experiment with HT-29 was > 100 µM (inactive) each time.
